Entries after “also recorded” stand apart in the source; their conditions may differ.
How the values were obtained:
[1] = Payload accumulation in cynomolgus tissues (LC-MS/MS); settings: single i.v.; INX234P 10 mg/kg, dexamethasone 2 mg/kg
[2] = tested on: steroid responsive genes in bone; experiment: RNAseq of mouse bones after treatment; settings: INX231P 10 mg/Kg i.p. 20h (hVISTA KI); Dex 2 mg/Kg 2h (C57BI/6)
[3] = Plasma corticosterone after repeated treatment; type: in vivo, hVISTA KI mice; settings: Dex 2 or 0.2 mg/Kg daily for 4 days; INX201J 10 or 3 mg/Kg (0.2 or 0.06 mg/Kg of payload) on days 1, 3 and 4
Protocol: On day 5, mice were bled and their corticosterone levels assessed by ELISA.
The experiment was performed in female hVISTA KI mice. […] A control group was included that received daily PBS injections. On day 5, mice were bled and their plasma corticosterone levels assessed by ELISA.
The ELISA was conducted following the manufacturer's included protocol using Arbor Assays (cat #K014-H5) Corticosterone 5 pack ELISA Kit.

[4] = tested on: transferred naïve CD4 T cells from hVISTA KI mice; experiment: T cell transfer colitis model; type: in vivo, Rag1-/- mice
Protocol: After >21 days, animals slowly start to lose weight and decreases in circulating naïve T cells are observed. In this model, the ADC targets only the transferred cells while the free GC can act on both transferred and host cells.
In EXPERIMENT 1, mice were treated with INX234P at 10 mg/Kg starting on day 0 and then once a week. […] In EXPERIMENT 1 treatment was initiated on day 0 (prophylactic) and terminated on day 61, whereas in EXPERIMENT 2 treatment was initiated on day 21 (or therapeutic) and remains ongoing at the time of this filing.
In both experiments, all treatments were administered once a week.
For EXPERIMENT 1, INX234P treatment was initiated on day 0 (or prophylactic) after naïve CD4 T cell transfer and terminated on day 61.
Naïve CD4 T cells were isolated from hVISTA KI spleen using an EasySep™ Mouse Naïve CD4+ T cell Isolation kit from StemCell (catalog #19765) following manufacturer instruction.
Following the protocol of Ostanin et al (2008), […] naïve CD45RB+, CD4+ T cells were injected i.p. on day 0
10 ml of antibody cocktail (see table on the right) was directly added to […] of blood. After 30 min incubation at room temperature (RT), 600 ml BD FACS lysis buffer was added to the sample. After 30 min incubation at RT, samples were spun at 550 rcf for 5 min, washed once in PBS, and then resuspended in a fixed volume of PBS. […]

[5] = tested on: steroid responsive genes in bone (Fkpb5, RANKL, ddit4, Fam107a); experiment: Steroid responsive gene transcription in bone (RNAseq); type: in vivo, mouse; settings: Dex 2 mg/Kg i.p., 2h
Excerpt: In the figure Fkpb5 is shown on the left, RANKL the middle left, ddit4 the middle right and Fam107a on the extreme right.

C[C@@H]1C[C@H]2[C@@H]3CCC4=CC(=O)C=C[C@]4(C)[C@@]3(F)[C@@H](O)C[C@]2(C)[C@@]1(O)C(=O)CO [Dex, dexamethasone]
accumulated compound in tissues at 24h (ng of compound/g of tissue) [1]: little accumulated free dexamethasone at 24h in any tissue
FKBP5 in bone (RNAseq) [2]: robust FKBP5 induction
basal plasma corticosterone levels on day 5 [3]: Dex at 2 mg/Kg dramatically decreased basal corticosterone levels; also recorded: only limited though significant impact at 0.2 mg/Kg
mice that had to be sacrificed ([4]; EXPERIMENT 1: high Dex (2 mg/Kg), 2 out of 10): 20%
median survival ([4]; EXPERIMENT 1: once a week day 0 to day 61, unconjugated INX234 10 mg/Kg, low Dex 0.2 mg/Kg): 72.5 days
impact on steroid responsive genes in bone [5]: significantly impacted

Reference: patent US20250108119A1, “NOVEL STEROID PAYLOADS, STEROID LINKERS, ADCs CONTAINING AND USE THEREOF” (IMMUNEXT, INC., priority 2021, published 2025)
